Experimental data taken from the supplement of paper PMC13380429.

Key:
U2OS [1] = experiment: cell viability relative to DMSO; higher = less toxic; details: 72 h
Calu-3 [2] = experiment: as above; details: 72 h
Vero E6 [3] = experiment: as above; details: 72 h
Caco-2 [4] = experiment: as above; details: 72 h
[5] = test system: A549-ACE2 infected with SARS-CoV-2; experiment: morphology score (similarity to uninfected cells); higher = more like uninfected cells; details: 24 h
[6] = test system: A549-ACE2 infected with SARS-CoV-2; experiment: cell count relative to DMSO; higher = less toxic; details: 24 h
U2OS [7] = experiment: relative viability EC50 (midpoint between 100% and the lowest measured viability); higher = less toxic; details: 72 h
Calu-3 [8] = experiment: as above; details: 72 h
Vero E6 [9] = experiment: as above; details: 72 h
Caco-2 [10] = experiment: as above; details: 72 h
[11] = test system: A549-ACE2 infected with SARS-CoV-2; experiment: SARS-CoV-2 infection rate relative to DMSO; higher = more infection; details: 24 h
A549-ACE2 = experiment: drug-induced phospholipidosis relative to tamoxifen; higher = more phospholipidosis
U2OS [12] = experiment: drug sensitivity score (DSS) for viability; higher = more toxic; extreme values may be limits of the assay; details: 72 h
Calu-3 [13] = experiment: as above; details: 72 h
Vero E6 [14] = experiment: as above; details: 72 h
Caco-2 [15] = experiment: as above; details: 72 h
HepG2 [16] = experiment: cell viability relative to DMSO; higher = less toxic; details: 72 h
HepG2 [17] = experiment: relative viability EC50 (midpoint between 100% and the lowest measured viability); higher = less toxic; details: 72 h
HepG2 [18] = experiment: drug sensitivity score (DSS) for viability; higher = more toxic; extreme values may be limits of the assay; details: 72 h

[Cl][Ru-]([Cl])([Cl])[Cl].[Na+].c1ccc2[nH]ncc2c1.c1ccc2[nH]ncc2c1 [NKP-1339]
Details	SARS-CoV-2 infection rate, [11] [%]	cell count, [6] [%]	cell viability, Caco-2 [4] [%]	cell viability, Calu-3 [2] [%]	cell viability, U2OS [1] [%]	cell viability, Vero E6 [3] [%]	morphology score, [5]
1 nM	–	–	98.5	96.2	94.2	95.7	–
10 nM	–	–	96.6	91.9	95.9	99.2	–
100 nM	–	–	94.3	93.2	100	98.9	–
0.3 µM	95	98	–	–	–	–	0.32
1000 nM	–	–	89.9	111	98.4	104	–
3 µM	99	103	–	–	–	–	0.06
10000 nM	–	–	85.2	96.1	99.5	103	–
10 µM	97	100	–	–	–	–	0.14
30 µM	91	105	–	–	–	–	0.16

Details	drug sensitivity score	relative viability EC50 [µM]
Caco-2 [10]	–	> 10
Caco-2 [15]	0.5	–
Calu-3 [8]	–	> 10
Calu-3 [13]	0	–
U2OS [7]	–	> 10
U2OS [12]	0	–
Vero E6 [9]	–	> 10
Vero E6 [14]	0	–

drug-induced phospholipidosis [%], A549-ACE2
Details	0.3 µM	0.833333 µM	3.33333 µM	6.66667 µM	10 µM	30 µM
24 h	-0.57	0.18	-2.08	-1.49	-1.44	2.85
48 h	0.31	0.08	-0.84	-0.18	-0.5	1.39
72 h	0.516	-1.21	-0.615	-0.927	0.0701	3.63

Cc1nnc2n1-c1sc(CCC(=O)N3CCOCC3)cc1C(c1ccccc1Cl)=NC2 [apafant]
Details	SARS-CoV-2 infection rate, [11] [%]	cell count, [6] [%]	cell viability, Caco-2 [4] [%]	cell viability, Calu-3 [2] [%]	cell viability, HepG2 [16] [%]	cell viability, Vero E6 [3] [%]	morphology score, [5]
1 nM	–	–	108	94.3	105	111	–
10 nM	–	–	107	94.7	93.7	105	–
100 nM	–	–	101	95.3	108	104	–
0.3 µM	101	101	–	–	–	–	-0.03
1000 nM	–	–	104	105	92.3	105	–
3 µM	83	102	–	–	–	–	0.43
10000 nM	–	–	94	87.1	102	99.7	–
10 µM	102	100	–	–	–	–	-0.18
30 µM	93	103	–	–	–	–	0.24

Details	drug sensitivity score	relative viability EC50 [µM]
Caco-2 [10]	–	> 10
Caco-2 [15]	0	–
Calu-3 [8]	–	> 10
Calu-3 [13]	0	–
HepG2 [17]	–	> 10
HepG2 [18]	0	–
Vero E6 [9]	–	> 10
Vero E6 [14]	0	–

drug-induced phospholipidosis [%], A549-ACE2
Details	0.3 µM	0.833333 µM	3.33333 µM	6.66667 µM	10 µM	30 µM
24 h	-0.44	-1.14	-1.04	-0.5	-1.44	-0.48
48 h	0.52	-1.18	0.04	0.92	-0.18	0.6
72 h	2.35	-0.663	0.399	-0.364	0.448	3.95

C[C@@H]1C[C@@H]([C@H](O)CC2CC(=O)NC(=O)C2)C(=O)[C@@H](C)C1 [cycloheximide]
[5]
Details	morphology score
0.3 µM	0.91
3 µM	0.69
10 µM	0.52
30 µM	0.48

Details	drug sensitivity score
Calu-3 [13]	7.3
HepG2 [18]	14.3
U2OS [12]	13.8
Vero E6 [14]	13.8
